As usually defined, the Ki is a measure of affinity in units of concentration, obtained from inhibition or displacement. High values mean weaker binding, low ones tighter binding.

One test deals with T1, hCRTH2 (Homo sapiens, UniProt Q9Y5Y4).
T1 construct: expressed in transfected cells; host or cells: HEK (human embryonic kidney) cells expressing hCRTH2
T1 sequence (Q9Y5Y4 1-395): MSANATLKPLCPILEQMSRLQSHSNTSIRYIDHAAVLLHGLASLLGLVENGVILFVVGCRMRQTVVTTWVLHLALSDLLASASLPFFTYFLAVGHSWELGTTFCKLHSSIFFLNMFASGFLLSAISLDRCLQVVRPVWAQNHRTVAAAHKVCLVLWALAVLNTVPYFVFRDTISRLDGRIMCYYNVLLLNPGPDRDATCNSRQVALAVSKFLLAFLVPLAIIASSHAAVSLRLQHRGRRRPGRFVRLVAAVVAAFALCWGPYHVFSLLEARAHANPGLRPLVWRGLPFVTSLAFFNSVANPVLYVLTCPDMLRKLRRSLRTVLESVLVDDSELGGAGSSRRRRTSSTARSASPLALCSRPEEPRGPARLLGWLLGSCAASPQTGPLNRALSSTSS
As to the kind of experiment: Radioligand Binding Assay B (scintillation proximity assay, [3H]-PGD2, HEK-hCRTH2 membranes). The settings on record: Radioligand Binding Assay B (SPA), values in text. The protocol:
Radioligand binding also was performed using scintillation proximity assay (SPA) technology in a similar way as described above in Radioligand Binding Assay A with minor modification. Assays were done at room temperature in 10 mM HEPES pH 7.4, 1 mM EDTA containing 2 mM MnCl2 and 16 nM [^3H]-PGD2 (PerkinElmer, Waltham, Mass.) (164 Ci mmol^−1), in a final volume of 0.05 mL. Competing ligands were diluted in dimethylsulfoxide (Me2SO) and added using very low volumes (50 nL). The reaction was initiated by the addition of a mixture of 3.52 μg of membrane protein prepared from a human embryonic kidney (HEK)-hCRTH2 cell line adhered to 140 ug of wheatgerm agglutinin SPA beads (PerkinElmer). Total and non-specific binding were determined in the absence and the presence of 10 μM of a CRTH2 antagonist, respectively. The reaction was routinely conducted for 60 min at room temperature followed by centrifugation for 5 minutes at 1000 RPM. The radioactivity was measured with a TopCountNXT (PerkinElmer). Results determined using the SPA-based assay were similar to those from the filtration binding assay.
(SPA uses beads or plates that emit light when radiolabelled molecules are held near them.)
In turn, `Cc1cccc(N2CCN(C(=O)c3ccc4nc(-c5ccc(Cl)cc5)c(CCCCC(=O)O)cc4c3)CC2)c1` [Compound 5BR, 5-(2-(4-chlorophenyl)-6-(4-(m-tolyl)piperazine-1-carbonyl)quinolin-3-yl)pentanoic acid] displayed a Ki of 7.4 nM. That is a single-digit nanomolar value.

Staying with this test, now noted: Table B, Radioligand Binding Assay B (SPA), rated A-D.
Consider `O=C(O)CCCCc1cc2cc(C(=O)N3CCN(c4ccccc4Cl)CC3)ccc2nc1-c1ccc(Cl)cc1` [Compound 5BP, 5-(2-(4-chlorophenyl)-6-(4-(2-chlorophenyl)piperazine-1-carbonyl)quinolin-3-yl)pentanoic acid], for which the Ki was 20.1 to 200 nM.

`Cc1ccccc1N1CCN(C(=O)c2ccc3nc(-c4ccc(Cl)cc4)c(CCCCC(=O)O)cc3c2)CC1` [Compound 5BQ, 5-(2-(4-chlorophenyl)-6-(4-(o-tolyl)piperazine-1-carbonyl)quinolin-3-yl)pentanoic acid] showed a Ki of 2.1 to 20 nM. Molecule `Cc1cccc(N2CCN(C(=O)c3ccc4nc(-c5ccc(Cl)cc5)c(CCCCC(=O)O)cc4c3)CC2)c1` [Compound 5BR, 5-(2-(4-chlorophenyl)-6-(4-(m-tolyl)piperazine-1-carbonyl)quinolin-3-yl)pentanoic acid] showed a Ki of 2.1 to 20 nM. In the case of `COc1ccc(N2CCN(C(=O)c3ccc4nc(-c5ccc(Cl)cc5)c(CCCCC(=O)O)cc4c3)CC2)cc1` [Compound 5BS, 5-(2-(4-chlorophenyl)-6-(4-(4-methoxyphenyl)piperazine-1-carbonyl)quinolin-3-yl)pentanoic acid], the Ki lay within 2.1 to 20 nM. The molecule `Cc1ccc(N2CCN(C(=O)c3ccc4nc(-c5ccc(Cl)cc5)c(CCCCC(=O)O)cc4c3)CC2)cc1` [Compound 5BT, 5-(2-(4-chlorophenyl)-6-(4-(p-tolyl)piperazine-1-carbonyl)quinolin-3-yl)pentanoic acid] showed a Ki of 2.1 to 20 nM. As to `O=C(O)CCCCc1cc2cc(C(=O)N3CCN(c4ccc(F)cc4)CC3)ccc2nc1-c1ccc(Cl)cc1` [Compound 5BU, 5-(2-(4-chlorophenyl)-6-(4-(4-fluorophenyl)piperazine-1-carbonyl)quinolin-3-yl)pentanoic acid], the Ki lay within 2.1 to 20 nM. Turning to `CC1(C)CCC(NC(=O)c2ccc3nc(-c4ccc(Cl)cc4)c(CCCCC(=O)O)cc3c2)c2ccccc21` (stereo not drawn) [Compound 5Bi, 5-(2-(4-chlorophenyl)-6-((4,4-dimethyl-1,2,3,4-tetrahydronaphthalen-1-yl)carbamoyl)quinolin-3-yl)pentanoic acid], the Ki is 2.1 to 20 nM. Turning to `O=C(O)CCCCc1cc2cc(C(=O)N3CCC4(CC3)OCc3ccccc34)ccc2nc1-c1ccc(Cl)cc1` [Compound 5Bo, 5-(2-(4-chlorophenyl)-6-(3H-spiro[isobenzofuran-1,4′-piperidin]-1′-ylcarbonyl)quinolin-3-yl)pentanoic acid], the Ki was 2.1 to 20 nM.
